We go through four compounds from DBAASP.

In brackets after ≈: the same amount, converted by molar mass.

Among the test systems are Salmonella typhimurium; Cryptococcus neoformans; Sporothrix schenckii; Bacillus cereus; Mannheimia haemolytica; Micrococcus luteus; Enterococcus faecalis; Escherichia coli; Streptococcus uberis; Staphylococcus aureus.
What all share (test): ≥ marks a high value that may be exact or a test limit, other limits are often not marked, values filed in µg/mL are converted to µM
For test [1], the system named is Photobacterium damselae subsp. piscicida Sp 9587.
The subject of test [2] is Aeromonas salmonicida NCIMB 1102.
Test [3] relates to Bacillus subtilis IAM 1026.
Test [4] deals with Escherichia coli JCM 1649.
Test [5] concerns Vibrio parahaemolyticus Vp+1.
Test [6] concerns Vibrio anguillarum NCIMB 829.
For test [7], the system named is Shewanella putrefaciens IAM 1509.
In test [8] the test system is Staphylococcus aureus IAM 1011.
Test [9] relates to Lactobacillus acidophilus ATCC 4356.
Test [10] deals with Staphylococcus aureus ATCC 25923.
The subject of test [11] is Klebsiella pneumoniae ATCC 27736.
Test [12] deals with Staphylococcus aureus ATCC 700698.
In test [13] the test system is Staphylococcus aureus ATCC 700699.
The test system of test [14] is Staphylococcus aureus ATCC 29213.
Test [15] has as its system Staphylococcus aureus ATCC BAA-44.
The test system of test [16] is Streptococcus mutans UA159.
Test [17] relates to Lacticaseibacillus casei ATCC 393.
Test [18] relates to Staphylococcus aureus ATCC 33592.
Test [19] relates to Actinomyces naeslundii ATCC 12104.
Test [20] concerns Candida albicans ATCC 10231.
Test [21] has as its system Bacillus subtilis ATCC 6633.
Test [22] relates to Candida parapsilosis ATCC 22019.
The test system of test [23] is Pseudomonas aeruginosa ATCC BAA-427.
Test [24] deals with Escherichia coli ATCC 9637.
Test [25] concerns Enterococcus faecalis ATCC 29212.
In test [26] the test system is Streptococcus sanguinis ATCC 10556.
The test system of test [27] is Streptococcus gordonii ATCC 10558.
The subject of test [28] is Streptococcus sobrinus ATCC 6715.
Test [29] relates to Actinomyces viscosus ATCC 15987.
Test [30] concerns Limosilactobacillus fermentum ATCC 9338.
Test [31] relates to Batrachochytrium dendrobatidis.
For test [32], the system named is Leuconostoc mesenteroides.
The subject of test [33] is Pseudomonas syringae pv. actinidiae Psa3700.1.1.
Test [34] concerns Xanthomonas campestris pv. Vesicatoria 2133-2.
For test [35], the system named is Pseudomonas syringae pv. syringae EPS 94.
Test [36] has as its system Xanthomonas arboricola pv. pruni CFBP 5563.
In test [37] the test system is Xanthomonas fragariae Xf349-9A.
Test [38] has as its system Erwinia amylovora PMV 6076.

Regarding `CC[C@H](C)[C@H](NC(=O)CNC(=O)CNC(=O)[C@@H](NC(=O)[C@@H](N)Cc1ccccc1)[C@@H](C)CC)C(=O)N[C@H](C(=O)N[C@@H](CO)C(=O)N[C@@H](Cc1ccccc1)C(=O)N[C@@H](Cc1ccccc1)C(=O)N[C@@H](CCCCN)C(=O)N[C@@H](CCCN=C(N)N)C(=O)N[C@@H](CC(C)C)C(=O)N[C@@H](Cc1ccccc1)C(=O)O)[C@@H](C)CC` [FIGGIISFFKRLF], the MIC in the test on Salmonella typhimurium is not below 32.4 µM; in test [1] it was 4.05 µM (≈ 6.25 µg/mL); in [2], not below 32.4 µM; in test [3] it was 2.03 µM (≈ 3.13 µg/mL); in test [4], not below 32.4 µM; in test [5], 16.2 µM (≈ 25 µg/mL). The minimum inhibitory concentration (MIC) worked out at 8.09 µM (≈ 12.5 µg/mL) in test [6], 4.05 µM (≈ 6.25 µg/mL) in test [7] and 2.03 µM (≈ 3.13 µg/mL) in [8].

Turning to `CC[C@H](C)[C@H](NC(=O)[C@H](C)NC(=O)[C@H](CCCCN)NC(=O)CNC(=O)[C@H](C)NC(=O)[C@H](Cc1cnc[nH]1)NC(=O)[C@@H](NC(=O)[C@H](C)NC(=O)CNC(=O)[C@H](CCCCN)NC(=O)[C@@H](NC(=O)[C@H](CC(C)C)NC(=O)[C@H](Cc1c[nH]c2ccccc12)NC(=O)CNC(=O)[C@H](Cc1ccccc1)NC(=O)[C@@H](N)Cc1ccccc1)[C@@H](C)CC)[C@@H](C)CC)C(=O)N[C@@H](Cc1cnc[nH]1)C(=O)NCC(=O)N[C@@H](CC(C)C)C(=O)N[C@H](C(=O)N[C@@H](Cc1cnc[nH]1)C(=O)N[C@@H](CCCN=C(N)N)C(=O)N[C@@H](CCCN=C(N)N)C(=O)N[C@@H](CCCN=C(N)N)C(=O)N[C@@H](Cc1cnc[nH]1)C(=O)O)[C@@H](C)CC` [FFGWLIKGAIHAGKAIHGLIHRRRH], the MIC turned out to be 1.96 µM (≈ 5.66 µg/mL) in test [9]; 3 µM (≈ 8.68 µg/mL) in test [10]; 3 µM (≈ 8.68 µg/mL) in [11]; 3 µM (≈ 8.68 µg/mL) in test [12]; 1.6 µM (≈ 4.63 µg/mL) in test [13]; 1.6 µM (≈ 4.63 µg/mL) in test [14]. The MIC with Cryptococcus neoformans stood at 3 µM (≈ 8.68 µg/mL); in test [15] it was 1.6 µM (≈ 4.63 µg/mL); in test [16], 1.38 µM (≈ 4 µg/mL); in test [17] it was 1.38 µM (≈ 4 µg/mL); in test [18], 1.6 µM (≈ 4.63 µg/mL); in test [19], 2.77 µM (≈ 8 µg/mL). Besides, the MIC in test [20] came to 6.8 µM (≈ 19.7 µg/mL); in test [21] it was 6 µM (≈ 17.4 µg/mL); in the test with Sporothrix schenckii, 13.6 µM (≈ 39.3 µg/mL); in test [22], 3 µM (≈ 8.68 µg/mL); in test [23], 6.8 µM (≈ 19.7 µg/mL); in test [24] it was 3.4 µM (≈ 9.83 µg/mL). In addition, the MIC in test [25] came to 3.91 µM (≈ 11.3 µg/mL); in [26], 1.96 µM (≈ 5.66 µg/mL); in test [27], 2.77 µM (≈ 8 µg/mL); in test [28], 1.38 µM (≈ 4 µg/mL); in test [29], 2.77 µM (≈ 8 µg/mL); in test [30], 1.38 µM (≈ 4 µg/mL).

As for `CSCC[C@H](N=C(O)[C@H](CC(C)C)N=C(O)CN)C(O)=N[C@@H](CO)C(O)=N[C@H](C(O)=N[C@@H](CC(C)C)C(O)=NCC(O)=N[C@@H](Cc1cnc[nH]1)C(O)=N[C@@H](C)C(O)=N[C@H](C(O)=NCC(O)=N[C@@H](CC(=N)O)C(O)=N[C@H](C(O)=N[C@@H](CC(C)C)C(O)=NCC(O)=NCC(O)=N[C@@H](CC(C)C)C(O)=N[C@@H](Cc1ccccc1)C(O)=N[C@@H](CCCCN)C(=O)N1CCC[C@H]1C(O)=N[C@@H](CCCCN)C(=O)O)C(C)C)C(C)C)C(C)C` [GLMSVLGHAVGNVLGGLFKPKS], the MIC in test [31] was not below 100 µM; against Bacillus cereus it was 5.73 µM (≈ 12 µg/mL); against Mannheimia haemolytica it was 0.367 µM (≈ 0.768 µg/mL); in the test with Micrococcus luteus it was 0.688 µM (≈ 1.44 µg/mL); in the test on Enterococcus faecalis it was not below 68.8 µM; with Escherichia coli, 22.9 µM (≈ 48 µg/mL). In addition, the MIC in test [32] turned out to be 11.5 µM (≈ 24 µg/mL); against Streptococcus uberis, 22.9 µM (≈ 48 µg/mL); against Staphylococcus aureus it was 45.8 µM (≈ 96 µg/mL).

For the compound `CSCC[C@H](NC(=O)[C@@H](NC(=O)[C@H](Cc1ccc(O)cc1)NC(=O)[C@H](CO)NC(=O)[C@H](CS)NC(=O)[C@@H](N)Cc1ccc(O)cc1)[C@@H](C)O)C(=O)N[C@@H](CCC(=O)O)C(=O)N[C@@H](C)C(N)=O` [YCSYTMEA], the MIC in test [33], in [34], in [35], in [36], in [37] and in test [38] was not below 50 µM throughout.

By MIC is commonly meant the smallest concentration in the dilution series that meets the test's criterion for growth inhibition. Low values mean greater potency, high ones weaker potency.
